In US11185074B2, “Microbiocidal quinoline (thio)carboxamide derivatives” (SYNGENTA PARTICIPATIONS AG, priority 2017, dated 2021):

Tests used:
Fusarium culmorum [1] = assay: whole plant or invertebrate; format: in vivo, Fusarium culmorum on wheat spikelets cv. Monsun; details: in Triticum aestivum, read-out: control of Fusarium culmorum
Fusarium culmorum [2] = assay: microbe, parasite or virus in culture; format: cell-based; details: read-out: control of Fusarium culmorum
[3] = system: Botryotinia fuckeliana (Botrytis cinerea); assay: Botryotinia fuckeliana (Botrytis cinerea) / liquid culture (gray mould); format: cell-based; details: 72 h, 20 ppm, liquid culture, inhibition of growth photometrically 3-4 days after application, compared to untreated control, read-out: control of Botryotinia fuckeliana
[4] = system: Glomerella lagenarium (Colletotrichum lagenarium); assay: Glomerella lagenarium (Colletotrichum lagenarium) / liquid culture (anthracnose); format: cell-based; details: Colletotrichum orbiculare; 20 ppm; liquid culture, inhibition of growth photometrically 3-4 days after application; compared to untreated control; read-out: control of Glomerella lagenarium
[5] = system: Monographella nivalis (Microdochium nivale); assay: Monographella nivalis (Microdochium nivale) / liquid culture (foot rot cereals); format: cell-based; details: 96 h, inhibition of growth photometrically 4-5 days after application, compared to untreated control
[6] = system: Magnaporthe grisea (Pyricularia oryzae); assay: whole plant or invertebrate; format: in vivo; details: foliar, read-out: control of Magnaporthe grisea
[7] = system: Magnaporthe grisea (Pyricularia oryzae); assay: microbe, parasite or virus in culture; format: cell-based; details: 72 h, read-out: control of Magnaporthe grisea
Sclerotinia sclerotiorum = Sclerotinia sclerotiorum / liquid culture (cottony rot); details: 72 h, read-out: control of Sclerotinia sclerotiorum
Method: Sclerotinia sclerotiorum/Liquid Culture (Cottony Rot)
Mycelia fragments of a newly grown liquid culture of the fungus are directly mixed into nutrient broth (Vogels broth). After placing a (DMSO) solution of test compound into a microtiter plate (96-well format) the nutrient broth containing the fungal material is added. The test plates are incubated at 24° C. and the inhibition of growth is determined photometrically 3-4 days after application.

[8] = system: Gibberella zeae (Fusarium graminearum); assay: whole plant or invertebrate; format: in vivo; details: in Triticum aestivum, 144 h, read-out: control of Gibberella zeae

Question: What does the source list for CCCC(C)CC(C)(CC(F)(F)F)NC(=O)c1cnc2c(C)cccc2c1 (centres unmarked) [E-47]?
Answer: pest or weed control at 200 ppm (Fusarium culmorum [1]): ≥ 80%; inhibition of growth at 20 ppm (Fusarium culmorum [2]): ≥ 80%; inhibition of growth at 20 ppm [3]: ≥ 80%; inhibition of growth at 20 ppm [4]: ≥ 80%; inhibition of growth at 20 ppm [5]: ≥ 80%; pest or weed control at 200 ppm [6]: ≥ 80%; inhibition of growth at 20 ppm [7]: ≥ 80%

Question: For CC(CC1CCCCC1)(CC(F)(F)F)NC(=O)c1cnc2c(F)cccc2c1 (centres unmarked) [E-62], which inhibition of growth at 20 ppm (Sclerotinia sclerotiorum) is on record?
Answer: ≥ 80%

Question: And the melting point?
Answer: 55 to 76 °C

Question: What about the inhibition of growth at 20 ppm (Fusarium culmorum [2]) of the same compound?
Answer: ≥ 80%

Question: What about the inhibition of growth at 20 ppm [3] of the same compound?
Answer: ≥ 80%

Question: What about the inhibition of growth at 20 ppm [4] of the same compound?
Answer: ≥ 80%

Question: What about the inhibition of growth at 20 ppm [5] of the same compound?
Answer: ≥ 80%

Question: And the pest or weed control at 200 ppm [6]?
Answer: ≥ 80%

Question: What about the inhibition of growth at 20 ppm [7] of the same compound?
Answer: ≥ 80%

Question: What does the source list for CC1(C[C@@](C)(CC(F)(F)F)NC(=O)c2cnc3c(F)cccc3c2)CC1 [F-2, 8-fluoro-N-[(1S)-3,3,3-trifluoro-1-methyl-1-[(1-methylcyclo-propyl)meth-yl]propyl]quinoline-3-carboxamide]?
Answer: pest or weed control at 200 ppm [8]: ≥ 80%; pest or weed control at 200 ppm (Fusarium culmorum [1]): ≥ 80%; inhibition of growth at 20 ppm (Fusarium culmorum [2]): ≥ 80%; inhibition of growth at 20 ppm [3]: ≥ 80%; inhibition of growth at 20 ppm [4]: ≥ 80%; inhibition of growth at 20 ppm [5]: ≥ 80%; pest or weed control at 200 ppm [6]: ≥ 80%; inhibition of growth at 20 ppm [7]: ≥ 80%

Question: With C[C@@](CC1CCCC1)(CC(F)(F)F)NC(=O)c1cnc2c(F)cccc2c1 [F-4, N-[(1R)-1-(cyclopentylmeth-yl)-3,3,3-trifluoro-1-methyl-propyl]-8-fluoro-quinoline-3-carboxamide] as the compound, how does the inhibition of growth at 20 ppm (Sclerotinia sclerotiorum) read?
Answer: ≥ 80%

Question: What about the melting point of the same compound?
Answer: 100 to 101 °C

Question: And the inhibition of growth at 20 ppm (Fusarium culmorum [2])?
Answer: ≥ 80%

Question: And the inhibition of growth at 20 ppm [3]?
Answer: ≥ 80%

Question: And the inhibition of growth at 20 ppm [4]?
Answer: ≥ 80%

Question: And the inhibition of growth at 20 ppm [5]?
Answer: ≥ 80%

Question: What about the pest or weed control at 200 ppm [6] of the same compound?
Answer: ≥ 80%

Question: And the inhibition of growth at 20 ppm [7]?
Answer: ≥ 80%

Question: Which inhibition of growth at 20 ppm (Sclerotinia sclerotiorum) does the source give for C[C@](CC1CCCCC1)(CC(F)(F)F)NC(=O)c1cnc2c(F)cccc2c1 [F-3, N-[(1S)-1-(cyclohexylmeth-yl)-3,3,3-trifluoro-1-methyl-propyl]-8-fluoro-quinoline-3-carboxamide] here?
Answer: ≥ 80%

Question: And the melting point?
Answer: 132 to 133 °C

Question: What about the inhibition of growth at 20 ppm (Fusarium culmorum [2]) of the same compound?
Answer: ≥ 80%

Question: And the inhibition of growth at 20 ppm [3]?
Answer: ≥ 80%

Question: And the inhibition of growth at 20 ppm [4]?
Answer: ≥ 80%

Question: What about the inhibition of growth at 20 ppm [5] of the same compound?
Answer: ≥ 80%

Question: And the pest or weed control at 200 ppm [6]?
Answer: ≥ 80%

Question: What about the inhibition of growth at 20 ppm [7] of the same compound?
Answer: ≥ 80%

Question: Which inhibition of growth at 20 ppm (Fusarium culmorum [2]) does the source give for CC(C)(CCc1cccc(C(F)(F)F)c1)NC(=O)c1cnc2c(F)cccc2c1 [E-27] here?
Answer: ≥ 80%

Question: And the inhibition of growth at 20 ppm [3]?
Answer: ≥ 80%

Question: What about the inhibition of growth at 20 ppm [4] of the same compound?
Answer: ≥ 80%

Question: What about the inhibition of growth at 20 ppm [5] of the same compound?
Answer: ≥ 80%

Question: What about the pest or weed control at 200 ppm [6] of the same compound?
Answer: ≥ 80%

Question: For CCCC(C)CC(C)NC(=O)c1cnc2c(C)cccc2c1 (centres unmarked) [E-42], which inhibition of growth at 20 ppm (Fusarium culmorum [2]) is on record?
Answer: ≥ 80%

Question: And the inhibition of growth at 20 ppm [3]?
Answer: ≥ 80%

Question: What about the inhibition of growth at 20 ppm [4] of the same compound?
Answer: ≥ 80%

Question: And the inhibition of growth at 20 ppm [5]?
Answer: ≥ 80%

Question: What about the pest or weed control at 200 ppm [6] of the same compound?
Answer: ≥ 80%

Question: Which results are given for CC(C)=C(F)CC(C)(CC(C)C)NC(=O)c1cnc2c(F)cccc2c1 (centres unmarked) [E-6]?
Answer: melting point: 119 to 121 °C; pest or weed control at 200 ppm [8]: ≥ 80%; pest or weed control at 200 ppm (Fusarium culmorum [1]): ≥ 80%; inhibition of growth at 20 ppm (Fusarium culmorum [2]): ≥ 80%; inhibition of growth at 20 ppm [3]: ≥ 80%; inhibition of growth at 20 ppm [4]: ≥ 80%; inhibition of growth at 20 ppm [5]: ≥ 80%; inhibition of growth at 20 ppm [7]: ≥ 80%

Question: Which results are given for C=C(C)CC(C)(CC(=C)C)NC(=O)c1cnc2c(F)c(F)ccc2c1 [E-56]?
Answer: inhibition of growth at 20 ppm (Sclerotinia sclerotiorum): ≥ 80%; melting point: 117 to 120 °C; inhibition of growth at 20 ppm (Fusarium culmorum [2]): ≥ 80%; inhibition of growth at 20 ppm [3]: ≥ 80%; inhibition of growth at 20 ppm [4]: ≥ 80%; inhibition of growth at 20 ppm [5]: ≥ 80%; pest or weed control at 200 ppm [6]: ≥ 80%; inhibition of growth at 20 ppm [7]: ≥ 80%

Question: For CC(CC1CCCC1)(CC(F)(F)F)NC(=O)c1cnc2c(F)c(F)ccc2c1 (centres unmarked) [E-57], which inhibition of growth at 20 ppm (Sclerotinia sclerotiorum) is on record?
Answer: ≥ 80%

Question: And the melting point?
Answer: 115 to 116 °C

Question: What about the inhibition of growth at 20 ppm (Fusarium culmorum [2]) of the same compound?
Answer: ≥ 80%

Question: And the inhibition of growth at 20 ppm [3]?
Answer: ≥ 80%

Question: And the inhibition of growth at 20 ppm [4]?
Answer: ≥ 80%

Question: What about the inhibition of growth at 20 ppm [5] of the same compound?
Answer: ≥ 80%

Question: What about the pest or weed control at 200 ppm [6] of the same compound?
Answer: ≥ 80%

Question: And the inhibition of growth at 20 ppm [7]?
Answer: ≥ 80%

Question: What does the source list for CC(CC1CCCC1)(CC(F)(F)F)NC(=O)c1cnc2c(F)cccc2c1 (centres unmarked) [E-59]?
Answer: inhibition of growth at 20 ppm (Sclerotinia sclerotiorum): ≥ 80%; melting point: 100 to 102 °C; pest or weed control at 200 ppm [8]: ≥ 80%; pest or weed control at 200 ppm (Fusarium culmorum [1]): ≥ 80%; inhibition of growth at 20 ppm (Fusarium culmorum [2]): ≥ 80%; inhibition of growth at 20 ppm [3]: ≥ 80%; inhibition of growth at 20 ppm [4]: ≥ 80%; inhibition of growth at 20 ppm [5]: ≥ 80%; pest or weed control at 200 ppm [6]: ≥ 80%; inhibition of growth at 20 ppm [7]: ≥ 80%

Question: With CC(C)=C(F)CC(CC(C)C)NC(=O)c1cnc2c(F)cccc2c1 (centres unmarked) [E-18] as the compound, how does the melting point read?
Answer: 75 to 76 °C

Question: What about the pest or weed control at 200 ppm [8] of the same compound?
Answer: ≥ 80%

Question: What about the pest or weed control at 200 ppm (Fusarium culmorum [1]) of the same compound?
Answer: ≥ 80%

Question: What about the inhibition of growth at 20 ppm (Fusarium culmorum [2]) of the same compound?
Answer: ≥ 80%

Question: What about the inhibition of growth at 20 ppm [3] of the same compound?
Answer: ≥ 80%

Question: And the inhibition of growth at 20 ppm [4]?
Answer: ≥ 80%

Question: And the inhibition of growth at 20 ppm [5]?
Answer: ≥ 80%

Question: What about the inhibition of growth at 20 ppm [7] of the same compound?
Answer: ≥ 80%

Question: Which inhibition of growth at 20 ppm (Sclerotinia sclerotiorum) does the source give for C=C(Cl)CC(C)(CC1CCCCC1)NC(=O)c1cnc2c(F)cccc2c1 (centres unmarked) [E-37] here?
Answer: ≥ 80%

Question: And the melting point?
Answer: 109 to 111 °C

Question: What about the pest or weed control at 200 ppm (Fusarium culmorum [1]) of the same compound?
Answer: ≥ 80%

Question: What about the inhibition of growth at 20 ppm (Fusarium culmorum [2]) of the same compound?
Answer: ≥ 80%

Question: And the inhibition of growth at 20 ppm [3]?
Answer: ≥ 80%

Question: And the inhibition of growth at 20 ppm [4]?
Answer: ≥ 80%

Question: And the inhibition of growth at 20 ppm [5]?
Answer: ≥ 80%

Question: What about the pest or weed control at 200 ppm [6] of the same compound?
Answer: ≥ 80%

Question: And the inhibition of growth at 20 ppm [7]?
Answer: ≥ 80%

Question: Which inhibition of growth at 20 ppm (Sclerotinia sclerotiorum) does the source give for Cc1cccc2cc(C(=O)NC(C)(CC3CCCCC3)CC(F)(F)F)cnc12 (centres unmarked) [E-61] here?
Answer: ≥ 80%

Question: What about the melting point of the same compound?
Answer: 107 to 110 °C

Question: What about the inhibition of growth at 20 ppm (Fusarium culmorum [2]) of the same compound?
Answer: ≥ 80%

Question: And the inhibition of growth at 20 ppm [3]?
Answer: ≥ 80%

Question: What about the inhibition of growth at 20 ppm [4] of the same compound?
Answer: ≥ 80%

Question: What about the inhibition of growth at 20 ppm [5] of the same compound?
Answer: ≥ 80%

Question: And the pest or weed control at 200 ppm [6]?
Answer: ≥ 80%

Question: What about the inhibition of growth at 20 ppm [7] of the same compound?
Answer: ≥ 80%

Question: Which inhibition of growth at 20 ppm (Sclerotinia sclerotiorum) does the source give for CC(CC1CCCCC1)(CC(F)(F)F)NC(=O)c1cnc2c(F)c(F)ccc2c1 (centres unmarked) [E-58] here?
Answer: ≥ 80%

Question: And the melting point?
Answer: 99 to 102 °C

Question: And the inhibition of growth at 20 ppm (Fusarium culmorum [2])?
Answer: ≥ 80%

Question: What about the inhibition of growth at 20 ppm [3] of the same compound?
Answer: ≥ 80%

Question: What about the inhibition of growth at 20 ppm [4] of the same compound?
Answer: ≥ 80%

Question: What about the inhibition of growth at 20 ppm [5] of the same compound?
Answer: ≥ 80%

Question: And the pest or weed control at 200 ppm [6]?
Answer: ≥ 80%

Question: What about the inhibition of growth at 20 ppm [7] of the same compound?
Answer: ≥ 80%
